Several values for one entry are separate records, joined by “and”; a condition that tells them apart may be missing. Identical values can stand only once.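 Where inhibition never reached the appropriate level, the endpoint shown equals the highest concentration tested. Otherwise, values were interpolated linearly from a five-concentration, 48-hour dose response in 96-well plates. GI50 marks 50% less growth. The concentration for full growth arrest is given as TGI.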
Assays:
Assay in all cases: growth of human tumour cells (NCI), 48 h
CAKI-1 renal = system: CAKI-1 renal
RPMI-8226 leukemia = system: RPMI-8226 leukemia
SK-MEL-2 melanoma = system: SK-MEL-2 melanoma
HCC-2998 colon = system: HCC-2998 colon
COLO 205 colon = system: COLO 205 colon
MDA-MB-435 = system: MDA-MB-435
A498 renal = system: A498 renal
LOX IMVI melanoma = system: LOX IMVI melanoma
IGROV1 ovarian = system: IGROV1 ovarian
K-562 leukemia = system: K-562 leukemia

SMILES	TGI (CAKI-1 renal) [µM]	TGI (RPMI-8226 leukemia) [µM]	TGI (SK-MEL-2 melanoma)	TGI (HCC-2998 colon) [µM]	TGI (COLO 205 colon) [µM]	TGI (MDA-MB-435) [µM]	TGI (A498 renal)	TGI (LOX IMVI melanoma) [µM]	TGI (IGROV1 ovarian)	TGI (K-562 leukemia) [µM]	GI50 (K-562 leukemia) [µM]	GI50 (MDA-MB-435) [µM]	GI50 (A498 renal)	GI50 (IGROV1 ovarian)
CCCCC(=O)c1c(O)nc2sccn2c1=O	> 10	> 10	> 10 µM	> 10	> 10	> 10	> 10 µM	> 10	> 10 µM					
Cc1cc(S(=O)(=O)N/C(=C(\C#N)C(=O)c2ccc(Cl)cc2)[n+]2ccc(N(C)C)cc2)c([S-])cc1Cl	> 100	> 100	83.4 µM	> 100	> 100	> 100	56.6 µM		> 100 µM	> 100				
COc1ccc(N2C(=O)CC(=O)N(C(=O)COc3ccc(OCC(=O)N4C(=O)CC(=O)N(c5ccc(OC)cc5)C4=S)cc3)C2=S)cc1	30.3	> 100	> 100 µM	> 100	39.8	> 100	> 100 µM		> 100 µM	> 100				
ClCCCc1ccccc1C1=NCCc2ccccc21	> 100	23.3	> 100 µM	> 100	52.9	> 100	> 100 µM		> 100 µM	> 100				
CC(=O)Oc1cc2c(cc1OC(C)=O)OCC(c1ccc(C)cc1)C2 (stereo not given)	40.4	63.1	34.1 µM	16.4	41.8		15.3 µM	37.7	42.9 µM	72.3				
CC(=O)OCC1OC(SC2=N/C(=C\c3ccc(Br)s3)C(=O)N2CN2CCOCC2)C(OC(C)=O)C(OC(C)=O)C1OC(C)=O (stereo not given)	34.3	27		38.7	37.6	> 100	46 µM	26.8	46.9 µM	45.7				
C[n+]1cccc2c(=O)c3ccccc3oc21	> 100		> 100 µM	> 100	> 100	> 100	> 100 µM	> 100	> 100 µM	> 100				
O=C1NC(=O)C(C(CC(=O)c2ccc([N+](=O)[O-])cc2)c2ccccc2)C(=O)N1 (stereo not given)		> 100	> 100 µM		> 100	> 100	> 100 µM	38.7	> 100 µM	> 100				
CCOP(=O)(/C=C\n1cc(C)c(=O)[nH]c1=O)OCC	> 100	> 100	> 100 µM		> 100	> 100	> 100 µM	> 100	> 100 µM	> 100				
CCOC(=O)c1nc2ccc(C(F)(F)F)cc2nc1Oc1cc(OC)c(OC)c(OC)c1		> 100	> 100 µM		63.7	> 100	> 100 µM	> 100	> 100 µM	> 100				
CCOc1ccc(N/C(=C(/C(Cl)=C(/Cl)N(CC)CC)[N+](=O)[O-])n2nnc3ccccc32)cc1	26.9	> 100	68.8 µM	> 100	37.2	33.9	73.5 µM			> 100				
CCCCCCCC/C=C\CCCCCCC/C=C1\C[C@](/C=C/C(=O)OC)(CO)OC1=O	4.15		23.9 µM	13.8	5.02	3.22	22.7 µM	3.02	6.29 µM	15.3				
O=C1CCCCC/C1=C\c1ccc([N+](=O)[O-])cc1	59.9	97	> 100 µM	33.1	49.2	> 100	> 100 µM		34.5 µM	> 100				
COC(=O)c1cc(=O)[nH]c(=O)[nH]1	> 100		> 100 µM			> 100	> 100 µM	> 100	> 100 µM	> 100				
O=c1[nH]nc(-c2ccccc2)n1/N=C\c1ccccc1	> 100	> 100	> 100 µM	> 100	> 100	> 100	> 100 µM	> 100		> 100				
Cc1cccc(Nc2nn3c(=O)c4c5c(sc4nc3s2)CCCC5)c1	> 100		> 100 µM		> 100	> 100		23.1	> 100 µM	> 100				
[Cl][Sn]([c]1ccccc1)([c]1ccccc1)[c]1ccccc1			0.524 µM and 0.196 µM and 0.0578 µM			0.42	0.523 µM and 0.159 µM		0.865 µM and 0.196 µM	0.892	0.302	0.186	0.165 µM and 0.0456 µM	0.316 µM and 0.0531 µM
C=C(C(N)=O)c1ccc([N+](=O)[O-])o1	7.27		22.5 µM	33.6	12.9	7.65	25.7 µM	23.1	23.4 µM	26				
C=C[C@@H](C)[C@H](NS(=O)(=O)c1ccc(C)cc1)C(=O)OCC		35.5	> 100 µM		> 100	47.2	> 100 µM	34.7	77.3 µM	> 100				
C/C=C/c1cc(=O)c([C@@H]2OC(=O)c3cc(OC)cc(OC)c32)co1	> 100	> 100	> 100 µM	90	55.5				> 100 µM	> 100				
NC(=O)c1cccc([N+](=O)[O-])c1	> 100	> 100	> 100 µM	> 100	> 100		> 100 µM	> 100	> 100 µM	> 100				
CCN(CC)N1C(=O)[N+](CC)(CC)N=C1[O-]	> 100	> 100	> 100 µM	> 100	> 100	> 100	> 100 µM	> 100	> 100 µM					
CN(C)C(=O)OC1C(=O)N(C)c2ccc(Cl)cc2C2(c3ccccc3)N1C2(Cl)Cl (stereo not given)	> 100	> 100	> 100 µM	> 100	> 100			> 100	> 100 µM	> 100				
CCCC(=O)NC(Nc1ccc(S(=O)(=O)Nc2cc(C)on2)cc1)(C(=O)OCC)C(F)(F)F (stereo not given)	> 100	> 100	> 100 µM	> 100	> 100	> 100		> 100	> 100 µM	> 100				

From PubChem BioAssay (NCI)
